Experiments:
Assay type in all cases: in vivo
[1] = system: velvetleaf; experiment: Test Example 3: herbicidal effects in soil treatment; conditions: dose 3.2 g/a
How it was run: (§1)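 Seeds were sown in sterilized diluvial soil and covered with about 1.5 cm of soil. Compounds, formulated as emulsifiable concentrates and diluted with water, were sprayed evenly over the soil surface at set doses in g/a. Herbicidal effect was scored on a rating scale three weeks later.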

[2] = system: common ragweed; experiment: as above; conditions: dose 3.2 g/a
How it was run: as §1

[3] = system: Italian ryegrass; experiment: as above; conditions: dose 3.2 g/a
How it was run: as §1

[4] = system: large crabgrass; experiment: as above; conditions: dose 3.2 g/a
How it was run: as §1

[5] = system: redroot pigweed; experiment: as above; conditions: dose 3.2 g/a
How it was run: as §1

[6] = system: giant foxtail; experiment: as above; conditions: dose 3.2 g/a
How it was run: as §1

[7] = system: barnyardgrass; experiment: as above; conditions: dose 3.2 g/a
How it was run: as §1

[8] = system: common lambsquater; experiment: as above; conditions: dose 3.2 g/a
How it was run: as §1

[9] = system: water foxtail; experiment: as above; conditions: dose 3.2 g/a
How it was run: as §1

[10] = system: wild oat; experiment: as above; conditions: dose 3.2 g/a
How it was run: as §1

[11] = system: posumbu knotweed; experiment: as above; conditions: dose 3.2 g/a
How it was run: as §1

[12] = system: common chickweed; experiment: as above; conditions: dose 3.2 g/a
How it was run: as §1

[13] = system: bulrush; experiment: Test Example 1: herbicidal effects in preemergence treatment under submerged conditions; conditions: dose 2.52 g/a
How it was run: (§2)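 Alluvial soil was flooded to 4 cm, sown with barnyardgrass, bulrush and ducksalad, and planted with 2.5-leaf rice seedlings. On the seeding day, water-diluted emulsifiable concentrates were applied to the water surface at set doses (g/a). After three weeks in a 25 to 30° C. greenhouse, mortality was scored 0–5.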

[14] = system: ducksalad; experiment: as above; conditions: dose 2.52 g/a
How it was run: as §2

[15] = system: barnyardgrass; experiment: as above; conditions: dose 2.52 g/a
How it was run: as §2

[16] = system: bulrush; experiment: Test Example 2: herbicidal effects during the vegetation period under submerged conditions; conditions: treatment during the vegetation period under submerged conditions; dose 2.52 g/a
How it was run: (§3)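 Barnyardgrass, bulrush and ducksalad were co-sown in alluvial soil flooded to 4 cm and grown in a greenhouse at 25 to 30° C. At the 1- or 2-leaf stage, water-diluted emulsifiable concentrates went onto the water surface at set doses (g/a). Herbicidal effect was scored three weeks later on a graded scale.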

[17] = system: ducksalad; experiment: as above; conditions: treatment during the vegetation period under submerged conditions; dose 2.52 g/a
How it was run: as §3

[18] = system: barnyardgrass; experiment: as above; conditions: treatment during the vegetation period under submerged conditions; dose 2.52 g/a
How it was run: as §3

[19] = system: velvetleaf; experiment: Test Example 4: herbicidal effect in foliage treatment; conditions: dose 3.2 g/a
How it was run: (§4)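 Post-emergence foliar spray of water-diluted emulsifiable concentrate at predetermined doses (g per are), applied to plants 14 days after sowing in sterile diluvial soil (greenhouse, 25 to 30° C). Visual scale rating of effect taken 3 weeks later.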

[20] = system: beadstraw; experiment: as above; conditions: dose 3.2 g/a
How it was run: as §4

[21] = system: common ragweed; experiment: as above; conditions: dose 3.2 g/a
How it was run: as §4

[22] = system: Italian ryegrass; experiment: as above; conditions: dose 3.2 g/a
How it was run: as §4

[23] = system: large crabgrass; experiment: as above; conditions: dose 3.2 g/a
How it was run: as §4

[24] = system: redroot pigweed; experiment: as above; conditions: dose 3.2 g/a
How it was run: as §4

[25] = system: giant foxtail; experiment: as above; conditions: dose 3.2 g/a
How it was run: as §4

[26] = system: barnyardgrass; experiment: as above; conditions: dose 3.2 g/a
How it was run: as §4

[27] = system: common lambsquater; experiment: as above; conditions: dose 3.2 g/a
How it was run: as §4

[28] = system: water foxtail; experiment: as above; conditions: dose 3.2 g/a
How it was run: as §4

[29] = system: wild oat; experiment: as above; conditions: dose 3.2 g/a
How it was run: as §4

[30] = system: posumbu knotweed; experiment: as above; conditions: dose 3.2 g/a
How it was run: as §4

[31] = system: common chickweed; experiment: as above; conditions: dose 3.2 g/a
How it was run: as §4

[32] = system: transplanted rice; experiment: Test Example 1: preemergence treatment under submerged conditions, effect on crop; conditions: dose 2.52 g/a
How it was run: as §2

[33] = three weeks after the application

Which results are given for `CCCOC(=O)N(c1ccccc1CN1COC(c2ccccc2)CC1=O)S(=O)(=O)C(F)(F)F` (stereo not shown) [II-11]?
I: velvetleaf, herbicidal effect (evaluation scale 0-5) [1]: 5 (mortality of 90% or above (nearly complete death)); J: common ragweed, herbicidal effect (evaluation scale 0-5) [2]: 2 (mortality of at least 20% and less than 40%); H: Italian ryegrass, herbicidal effect (evaluation scale 0-5) [3]: 3 (mortality of at least 40% and less than 70%); D: large crabgrass, herbicidal effect (evaluation scale 0-5) [4]: 3 (mortality of at least 40% and less than 70%); K: redroot pigweed, herbicidal effect (evaluation scale 0-5) [5]: 0 (mortality of less than 5% (almost ineffective)); E: giant foxtail, herbicidal effect (evaluation scale 0-5) [6]: 4 (mortality of at least 70% and less than 90%); A: barnyardgrass, herbicidal effect (evaluation scale 0-5) [7]: 3 (mortality of at least 40% and less than 70%); L: common lambsquater, herbicidal effect (evaluation scale 0-5) [8]: 0 (mortality of less than 5% (almost ineffective)); G: water foxtail, herbicidal effect (evaluation scale 0-5) [9]: 4 (mortality of at least 70% and less than 90%); F: wild oat, herbicidal effect (evaluation scale 0-5) [10]: 0 (mortality of less than 5% (almost ineffective)); M: posumbu knotweed, herbicidal effect (evaluation scale 0-5) [11]: 0 (mortality of less than 5% (almost ineffective)); N: common chickweed, herbicidal effect (evaluation scale 0-5) [12]: 3 (mortality of at least 40% and less than 70%); B: bulrush, herbicidal effect (evaluation scale 0-5) [13]: 5 (mortality of 90% or above (nearly complete death)); C: ducksalad, herbicidal effect (evaluation scale 0-5) [14]: 5 (mortality of 90% or above (nearly complete death)); A: barnyardgrass, herbicidal effect (evaluation scale 0-5) [15]: 5 (mortality of 90% or above (nearly complete death)); B: bulrush, herbicidal effect (evaluation scale 0-5) [16]: 5 (mortality of 90% or above (nearly complete death)); C: ducksalad, herbicidal effect (evaluation scale 0-5) [17]: 5 (mortality of 90% or above (nearly complete death)); A: barnyardgrass, herbicidal effect (evaluation scale 0-5) [18]: 5 (mortality of 90% or above (nearly complete death)); I: velvetleaf, herbicidal effect ([19]; three weeks after application): 4 (mortality of at least 70% and less than 90%); O: beadstraw, herbicidal effect ([20]; three weeks after application): 4 (mortality of at least 70% and less than 90%); J: common ragweed, herbicidal effect ([21]; three weeks after application): 4 (mortality of at least 70% and less than 90%); H: Italian ryegrass, herbicidal effect ([22]; three weeks after application): 1 (mortality of at least 5% and less than 20%); D: large crabgrass, herbicidal effect ([23]; three weeks after application): 2 (mortality of at least 20% and less than 40%); K: redroot pigweed, herbicidal effect ([24]; three weeks after application): 0 (mortality of less than 5% (almost ineffective)); E: giant foxtail, herbicidal effect ([25]; three weeks after application): 2 (mortality of at least 20% and less than 40%); A: barnyardgrass, herbicidal effect ([26]; three weeks after application): 4 (mortality of at least 70% and less than 90%); L: common lambsquater, herbicidal effect ([27]; three weeks after application): 2 (mortality of at least 20% and less than 40%); G: water foxtail, herbicidal effect ([28]; three weeks after application): 3 (mortality of at least 40% and less than 70%); F: wild oat, herbicidal effect ([29]; three weeks after application): 0 (mortality of less than 5% (almost ineffective)); M: posumbu knotweed, herbicidal effect ([30]; three weeks after application): 3 (mortality of at least 40% and less than 70%); N: common chickweed, herbicidal effect ([31]; three weeks after application): 4 (mortality of at least 70% and less than 90%); a: transplanted rice, effect on crop (evaluation scale 0-5) [32]: 0 (mortality of less than 5% (almost ineffective))

Which results are given for `O=C1CCCON1Cc1ccccc1N(C(=O)OCCCl)S(=O)(=O)C(F)(F)F` [III-14]?
herbicidal effect, I: velvetleaf [1]: 5 (mortality of 90% or above (nearly complete death)); herbicidal effect, J: common ragweed [2]: 5 (mortality of 90% or above (nearly complete death)); herbicidal effect, H: Italian ryegrass [3]: 3 (mortality of at least 40% and less than 70%); herbicidal effect, D: large crabgrass [4]: 5 (mortality of 90% or above (nearly complete death)); herbicidal effect, K: redroot pigweed [5]: 1 (mortality of at least 5% and less than 20%); herbicidal effect, E: giant foxtail [6]: 5 (mortality of 90% or above (nearly complete death)); herbicidal effect, A: barnyardgrass [7]: 5 (mortality of 90% or above (nearly complete death)); herbicidal effect, L: common lambsquater [8]: 0 (mortality of less than 5% (almost ineffective)); herbicidal effect, G: water foxtail [9]: 5 (mortality of 90% or above (nearly complete death)); herbicidal effect, F: wild oat [10]: 0 (mortality of less than 5% (almost ineffective)); herbicidal effect, M: posumbu knotweed [11]: 3 (mortality of at least 40% and less than 70%); herbicidal effect, N: common chickweed [12]: 5 (mortality of 90% or above (nearly complete death)); B: bulrush, herbicidal effect (evaluation scale 0-5) [13]: 5 (mortality of 90% or above (nearly complete death)); C: ducksalad, herbicidal effect (evaluation scale 0-5) [14]: 5 (mortality of 90% or above (nearly complete death)); A: barnyardgrass, herbicidal effect (evaluation scale 0-5) [15]: 5 (mortality of 90% or above (nearly complete death)); B: bulrush, herbicidal effect (evaluation scale 0-5) [16]: 5 (mortality of 90% or above (nearly complete death)); C: ducksalad, herbicidal effect (evaluation scale 0-5) [17]: 5 (mortality of 90% or above (nearly complete death)); A: barnyardgrass, herbicidal effect (evaluation scale 0-5) [18]: 5 (mortality of 90% or above (nearly complete death)); I: velvetleaf, herbicidal effect [19, 33]: 5 (mortality of 90% or above (nearly complete death)); O: beadstraw, herbicidal effect [20, 33]: 5 (mortality of 90% or above (nearly complete death)); J: common ragweed, herbicidal effect [21, 33]: 4 (mortality of at least 70% and less than 90%); H: Italian ryegrass, herbicidal effect [22, 33]: 4 (mortality of at least 70% and less than 90%); D: large crabgrass, herbicidal effect [23, 33]: 5 (mortality of 90% or above (nearly complete death)); K: redroot pigweed, herbicidal effect [24, 33]: 3 (mortality of at least 40% and less than 70%); E: giant foxtail, herbicidal effect [25, 33]: 5 (mortality of 90% or above (nearly complete death)); A: barnyardgrass, herbicidal effect [26, 33]: 5 (mortality of 90% or above (nearly complete death)); L: common lambsquater, herbicidal effect [27, 33]: 0 (mortality of less than 5% (almost ineffective)); G: water foxtail, herbicidal effect [28, 33]: 5 (mortality of 90% or above (nearly complete death)); F: wild oat, herbicidal effect [29, 33]: 0 (mortality of less than 5% (almost ineffective)); M: posumbu knotweed, herbicidal effect [30, 33]: 0 (mortality of less than 5% (almost ineffective)); N: common chickweed, herbicidal effect [31, 33]: 4 (mortality of at least 70% and less than 90%); a: transplanted rice, effect on crop (evaluation scale 0-5) [32]: 3 (mortality of at least 40% and less than 70%)

Reference: US20120029187A1, “HALOALKYLSULFONANILIDE DERIVATIVE” (Nissan Chemical Industries, Ltd., priority 2009, published 2012)
